# Results as given in paper PMC5951806, “Rapid labelling and covalent inhibition of intracellular native proteins using ligand-directed N-acyl-N-alkyl sulfonamide” (Nature Communications, 2018).
# Columns and labels:
# Experiment in all cases: TMT LC-MSMS of 11-labelled proteins
# Assay type in all cases: cell-based
# [1] = biological target: Heat shock cognate 71 kDa protein (HSPA8) (Homo sapiens, UniProt P11142)
# [2] = biological target: T1, Isoform 2 of Fructose-bisphosphate aldolase A (ALDOA) (Homo sapiens, UniProt P04075)
# T1 sequence (P04075 2-364 limits assumed): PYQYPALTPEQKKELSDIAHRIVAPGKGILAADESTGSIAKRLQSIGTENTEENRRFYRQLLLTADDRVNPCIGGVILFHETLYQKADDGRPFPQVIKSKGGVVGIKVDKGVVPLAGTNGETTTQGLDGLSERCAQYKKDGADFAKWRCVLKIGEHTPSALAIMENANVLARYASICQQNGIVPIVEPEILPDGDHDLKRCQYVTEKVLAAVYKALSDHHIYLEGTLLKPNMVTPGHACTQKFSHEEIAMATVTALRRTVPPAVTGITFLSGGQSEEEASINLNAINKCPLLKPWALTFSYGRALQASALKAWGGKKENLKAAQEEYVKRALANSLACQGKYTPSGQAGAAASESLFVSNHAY
# [3] = biological target: Stress-70 protein, mitochondrial (HSPA9) (Homo sapiens, UniProt P38646)
# [4] = biological target: Trifunctional enzyme subunit alpha, mitochondrial (HADHA) (Homo sapiens, UniProt P40939)
# [5] = sheet Exp1, SKBR3 cells, 11 0.5 µM 3 h vs DMSO
# [6] = sheet Exp1, SKBR3 cells, 11 0.5 µM 3 h vs with PU-H71 10 µM
# [7] = sheet Merged, SKBR3 cells, 11 0.5 µM 3 h vs DMSO
# [8] = sheet Merged, SKBR3 cells, 11 0.5 µM 3 h vs with PU-H71 10 µM
# Trifunctional enzyme subunit alpha, mitochondrial (HADHA), sequence (P40939 37-763): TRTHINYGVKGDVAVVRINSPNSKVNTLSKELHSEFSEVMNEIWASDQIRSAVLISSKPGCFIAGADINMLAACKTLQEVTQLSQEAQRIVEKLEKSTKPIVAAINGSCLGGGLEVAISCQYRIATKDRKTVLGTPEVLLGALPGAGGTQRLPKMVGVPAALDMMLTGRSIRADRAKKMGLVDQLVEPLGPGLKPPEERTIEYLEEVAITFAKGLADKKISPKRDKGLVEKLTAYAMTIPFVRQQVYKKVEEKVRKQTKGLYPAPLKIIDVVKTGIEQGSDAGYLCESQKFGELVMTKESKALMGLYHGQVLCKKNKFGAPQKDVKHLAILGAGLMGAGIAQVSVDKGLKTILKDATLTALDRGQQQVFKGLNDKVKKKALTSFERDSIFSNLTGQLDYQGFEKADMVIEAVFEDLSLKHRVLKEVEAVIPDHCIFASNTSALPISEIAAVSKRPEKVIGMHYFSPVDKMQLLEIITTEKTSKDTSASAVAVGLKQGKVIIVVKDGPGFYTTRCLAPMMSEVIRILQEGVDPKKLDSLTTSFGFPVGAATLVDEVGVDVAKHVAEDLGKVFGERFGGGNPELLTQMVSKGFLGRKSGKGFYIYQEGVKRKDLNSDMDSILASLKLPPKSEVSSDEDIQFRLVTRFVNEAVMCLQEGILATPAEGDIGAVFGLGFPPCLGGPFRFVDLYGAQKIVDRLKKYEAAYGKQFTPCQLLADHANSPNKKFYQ
# Trifunctional enzyme subunit alpha, mitochondrial (HADHA), sequence (P55084 34-474 partner): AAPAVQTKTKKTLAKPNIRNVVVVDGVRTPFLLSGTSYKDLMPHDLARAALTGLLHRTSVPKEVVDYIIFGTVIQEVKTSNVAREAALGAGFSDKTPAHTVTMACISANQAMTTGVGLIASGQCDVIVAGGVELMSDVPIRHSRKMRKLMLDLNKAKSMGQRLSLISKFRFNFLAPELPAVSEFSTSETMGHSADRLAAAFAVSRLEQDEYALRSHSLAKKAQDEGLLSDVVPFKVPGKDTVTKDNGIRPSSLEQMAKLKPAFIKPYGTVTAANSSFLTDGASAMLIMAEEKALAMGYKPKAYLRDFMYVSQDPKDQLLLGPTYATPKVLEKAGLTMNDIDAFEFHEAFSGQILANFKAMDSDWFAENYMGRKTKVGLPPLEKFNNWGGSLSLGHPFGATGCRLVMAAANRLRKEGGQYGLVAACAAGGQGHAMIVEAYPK
# Heat shock cognate 71 kDa protein (HSPA8), sequence (P11142 whole entry, canonical isoform): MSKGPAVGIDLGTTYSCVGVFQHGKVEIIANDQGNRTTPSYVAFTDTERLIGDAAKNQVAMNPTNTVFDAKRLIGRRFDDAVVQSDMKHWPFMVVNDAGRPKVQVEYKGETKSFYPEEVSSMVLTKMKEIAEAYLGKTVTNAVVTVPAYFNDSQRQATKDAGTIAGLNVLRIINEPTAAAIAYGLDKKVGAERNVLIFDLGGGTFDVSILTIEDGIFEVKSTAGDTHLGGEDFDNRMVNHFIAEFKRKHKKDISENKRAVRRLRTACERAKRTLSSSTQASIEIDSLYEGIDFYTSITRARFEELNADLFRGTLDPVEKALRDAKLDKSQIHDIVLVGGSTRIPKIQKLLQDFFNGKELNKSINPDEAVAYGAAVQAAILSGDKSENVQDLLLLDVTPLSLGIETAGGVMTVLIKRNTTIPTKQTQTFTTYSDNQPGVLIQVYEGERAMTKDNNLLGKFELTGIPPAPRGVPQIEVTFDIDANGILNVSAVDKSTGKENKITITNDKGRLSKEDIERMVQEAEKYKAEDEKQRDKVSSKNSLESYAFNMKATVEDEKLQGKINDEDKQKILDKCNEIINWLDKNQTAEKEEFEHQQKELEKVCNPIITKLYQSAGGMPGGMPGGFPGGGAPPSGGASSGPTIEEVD
# Stress-70 protein, mitochondrial (HSPA9), sequence (P38646 47-679): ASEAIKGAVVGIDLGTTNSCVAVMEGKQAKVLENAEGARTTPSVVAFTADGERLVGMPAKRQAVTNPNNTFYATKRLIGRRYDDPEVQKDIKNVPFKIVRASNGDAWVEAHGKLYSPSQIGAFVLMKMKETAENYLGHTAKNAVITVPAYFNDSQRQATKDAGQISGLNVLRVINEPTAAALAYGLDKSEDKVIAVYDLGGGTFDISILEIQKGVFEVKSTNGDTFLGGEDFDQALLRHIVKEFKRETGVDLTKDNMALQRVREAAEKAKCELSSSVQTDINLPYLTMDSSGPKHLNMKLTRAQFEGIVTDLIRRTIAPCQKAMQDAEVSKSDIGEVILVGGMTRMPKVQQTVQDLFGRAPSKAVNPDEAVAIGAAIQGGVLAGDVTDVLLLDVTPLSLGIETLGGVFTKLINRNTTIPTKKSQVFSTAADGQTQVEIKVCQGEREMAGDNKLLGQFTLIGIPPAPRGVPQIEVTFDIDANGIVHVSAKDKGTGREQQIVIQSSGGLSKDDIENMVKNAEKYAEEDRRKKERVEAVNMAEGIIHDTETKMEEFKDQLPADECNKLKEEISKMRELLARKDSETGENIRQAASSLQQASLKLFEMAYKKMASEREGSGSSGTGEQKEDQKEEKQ
smiles,measurement,setting,value
CC(=O)Oc1ccc2c(c1)Oc1cc(OC(C)=O)ccc1C21OC(=O)c2cc(C(=O)NCCOCCOCCNC(=O)CCCC(=O)N(CC#N)S(=O)(=O)c3ccc(C(=O)NCCCn4c(Sc5cc6c(cc5I)OCO6)nc5c(N)ncnc54)cc3)ccc21 [compound 11],Abundance Ratio: (11) / (11 with PU-H71),"[1]; Exp3, HSPA8",1.213
same,Abundance Ratio: (11) / (DMSO),"[1]; Exp3, HSPA8",3.219
same,Abundances (Grouped): 11,"[1]; Exp3, HSPA8",407.2
same,Abundances (Grouped): 11 with PU-H71,"[1]; Exp3, HSPA8",335.6
same,Abundance Ratio: (11) / (DMSO),[1]; [5],3.395
same,Abundance Ratio: (11) / (11 with PU-H71),[1]; [6],1.175
same,Abundance Ratio: (11) / (11 with PU-H71),"[1]; sheet Exp2, HSPA8",1.256
same,Abundance Ratio: (11) / (DMSO),"[1]; sheet Exp2, HSPA8",4.511
same,Abundances (Grouped): 11,"[1]; sheet Exp2, HSPA8",471.4
same,Abundances (Grouped): 11 with PU-H71,"[1]; sheet Exp2, HSPA8",375.4
same,Abundance Ratio: (11) / (DMSO),[1]; [7],3.381
same,Abundance Ratio: (11) / (11 with PU-H71),[1]; [8],1.191
same,Abundance Ratio: (11) / (11 with PU-H71),"[2]; Exp3, ALDOA",0.706
same,Abundance Ratio: (11) / (DMSO),"[2]; Exp3, ALDOA",3.817
same,Abundances (Grouped): 11,"[2]; Exp3, ALDOA",494.7
same,Abundances (Grouped): 11 with PU-H71,"[2]; Exp3, ALDOA",700.9
same,Abundance Ratio: (11) / (DMSO),[2]; [5],4.85
same,Abundance Ratio: (11) / (11 with PU-H71),[2]; [6],0.675
same,Abundance Ratio: (11) / (11 with PU-H71),"[2]; sheet Exp2, ALDOA",0.724
same,Abundance Ratio: (11) / (DMSO),"[2]; sheet Exp2, ALDOA",4.699
same,Abundances (Grouped): 11,"[2]; sheet Exp2, ALDOA",363.2
same,Abundances (Grouped): 11 with PU-H71,"[2]; sheet Exp2, ALDOA",502
same,Abundance Ratio: (11) / (DMSO),[2]; [7],4.85
same,Abundance Ratio: (11) / (11 with PU-H71),[2]; [8],0.675
same,Abundance Ratio: (11) / (11 with PU-H71),"[3]; Exp3, HSPA9",0.949
same,Abundance Ratio: (11) / (DMSO),"[3]; Exp3, HSPA9",2.217
same,Abundances (Grouped): 11,"[3]; Exp3, HSPA9",31.7
same,Abundances (Grouped): 11 with PU-H71,"[3]; Exp3, HSPA9, with PU-H71",33.4
same,Abundance Ratio: (11) / (DMSO),[3]; [7],2.217
same,Abundance Ratio: (11) / (11 with PU-H71),[3]; [8],0.949
same,Abundance Ratio: (11) / (11 with PU-H71),"[4]; Exp3, HADHA",0.887
same,Abundance Ratio: (11) / (DMSO),"[4]; Exp3, HADHA",5.561
same,Abundances (Grouped): 11,"[4]; Exp3, HADHA",1575.4
same,Abundances (Grouped): 11 with PU-H71,"[4]; Exp3, HADHA",1776.8
same,Abundance Ratio: (11) / (DMSO),[4]; [5],7.409
same,Abundance Ratio: (11) / (11 with PU-H71),[4]; [6],0.838
same,Abundance Ratio: (11) / (11 with PU-H71),"[4]; sheet Exp2, HADHA",0.82
same,Abundance Ratio: (11) / (DMSO),"[4]; sheet Exp2, HADHA",5.216
same,Abundances (Grouped): 11,"[4]; sheet Exp2, HADHA",1189.7
same,Abundances (Grouped): 11 with PU-H71,"[4]; sheet Exp2, HADHA",1451.4
same,Abundance Ratio: (11) / (DMSO),[4]; [7],7.058
same,Abundance Ratio: (11) / (11 with PU-H71),[4]; [8],0.838
